#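 Assay format: 96-well plates, 48-hour exposure. GI50: concentration for 50% inhibition of growth. TGI marks complete inhibition of growth.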
# Assays:
# Test in all cases: NCI anticancer screen, dose series, 48 h
# A498 renal = test system: A498 renal
# A549 NSCLC = test system: A549 NSCLC
# HL-60(TB) leukemia = test system: HL-60(TB) leukemia
# HOP-62 NSCLC = test system: HOP-62 NSCLC
# HOP-92 NSCLC = test system: HOP-92 NSCLC
# IGROV1 ovarian = test system: IGROV1 ovarian
# MALME-3M melanoma = test system: MALME-3M melanoma
# NCI-H23 lung = test system: NCI-H23 lung
# NCI-H522 lung = test system: NCI-H522 lung
# OVCAR-3 ovarian = test system: OVCAR-3 ovarian
# SF-539 CNS = test system: SF-539 CNS
# SK-MEL-2 melanoma = test system: SK-MEL-2 melanoma
# SNB-75 CNS = test system: SNB-75 CNS
# SW-620 colon = test system: SW-620 colon
SMILES,TGI (A498 renal) [µM],TGI (A549 NSCLC) [µM],TGI (HL-60(TB) leukemia) [µM],TGI (HOP-62 NSCLC) [µM],TGI (HOP-92 NSCLC) [µM],TGI (IGROV1 ovarian) [µM],TGI (MALME-3M melanoma) [µM],TGI (NCI-H23 lung) [µM],TGI (NCI-H522 lung) [µM],TGI (OVCAR-3 ovarian) [µM],TGI (SF-539 CNS) [µM],TGI (SK-MEL-2 melanoma) [µM],TGI (SNB-75 CNS) [µM],TGI (SW-620 colon) [µM],GI50 (A498 renal) [µM],GI50 (HOP-92 NSCLC) [µM],GI50 (IGROV1 ovarian) [µM],GI50 (SK-MEL-2 melanoma) [µM],GI50 (SNB-75 CNS) [µM]
CC12CCC([C@H](N3CCOCC3)/C1=N\OCCN1CCCC1)C2(C)C (some centres undefined),> 100,> 100,> 100,> 100,> 100,> 100,> 100,> 100,> 100,> 100,> 100,> 100,> 100,> 100,–,–,–,–,–
O[C@@]1(c2cccs2)c2cccc(Cl)c2[C@](O)(c2cccs2)c2cccc(Cl)c21,25.8,43.7,46.3,> 100,> 100,33,37.2,39.8,55.6,37.1,> 100,42.4,> 100,44.8,–,–,–,–,–
Nc1nc(Cl)c(N)c(NCC2(CO)CC(Cc3ccccc3)C2)n1 (centres undefined),> 78.5,> 100,17.3,> 100,> 100,> 100,> 100,> 100,> 100,> 100,> 100,> 100,> 100,> 100,–,–,–,–,–
COc1ccc(/C(CCl)=C(\Nc2ccccc2)c2ccc(OC)c(OC)c2)cc1OC,> 100,> 100,> 100,> 100,> 100,–,> 100,> 100,> 100,> 100,> 100,> 100,> 100,> 100,–,–,–,–,–
CN(C)CCNc1ccc2ncnc3c2c1C(=O)c1ccccc1-3,9.25,1.73,> 23.6,3.25,8.43,0.574,2.38,3.4,0.982,10.1,17,10.8,6.96,3.81,–,–,–,–,–
O=C1CSC(/C=C/c2ccccc2)N1c1ccc(-c2ccc(-n3c(-c4ccccc4)nc4ccccc4c3=O)cc2)cc1 (centres undefined),> 100,68,> 100,99.2,56.2,75.6,64.4,> 100,42.9,84.6,–,38.6,8.52,65.1,–,–,–,–,–
COc1cc(O)c2c(=O)c(OC)c(-c3ccc4c(c3)OCO4)oc2c1,> 89.3,> 100,> 100,> 63.1,> 57.7,> 100,> 100,> 100,> 100,–,> 74.9,> 100,14.9,> 100,–,–,–,–,–
COc1ccc(-c2cnoc2-c2ccc(OC)c(OC)c2)cc1OC,21.2,> 44.8,2.88,20.5,21.3,9.53,–,3.97,2.1,7.54,3.3,42.7,6.53,> 37.5,–,–,–,–,–
COC(=O)Nc1nc2ccc(Oc3ccc4nc(NC(=O)OC)[nH]c4c3)cc2[nH]1,> 51.4,> 100,1.96,45.6,> 100,> 54.4,> 100,> 100,> 100,0.744,1.69,> 100,2.87,11.2,–,–,–,–,–
CC1C2=C(CC(C)(C)CC2=O)NC2=C1C(=O)CC(C)(C)C2,> 100,> 100,> 100,–,> 100,> 100,–,> 100,–,> 100,> 100,–,> 100,> 100,–,–,–,–,–
FC(F)(F)c1nc2ccc(SSc3ccc4nc(C(F)(F)F)[nH]c4c3)cc2[nH]1,> 100,> 100,> 100,> 100,> 100,> 100,–,> 100,> 100,> 100,> 100,> 100,> 100,> 100,> 100,> 100,> 100,> 100,> 100
COc1ccc(OC)c([N+](=O)[O-])c1-c1nc2sccn2c1/C=N/N=C(N)N,> 100,> 100,> 100,> 100,> 100,> 100,> 100,> 100,> 100,> 100,> 100,93.2,–,> 100,–,–,–,–,–
CSc1c(C#N)c(O)n(-c2ccc(C)cc2)c(=O)c1C#N,> 100,> 100,> 100,–,> 100,> 100,> 100,> 100,> 100,> 100,> 100,> 100,> 100,> 100,–,–,–,–,–
CC1=C(C(=O)N[C@@H](Cc2ccccc2)C(=O)O)N2C(=O)[C@@H](NC(=O)[C@@H](N)CC(C)C)[C@H]2SC1,> 100,> 100,> 100,–,> 100,> 100,> 100,–,> 100,> 100,> 100,> 100,> 100,> 100,–,–,–,–,–
C=CCC1C(=O)C(C(=O)OC)N2CCc3c([nH]c4ccccc34)C12 (centres undefined),> 100,> 100,> 100,> 100,> 100,> 100,> 100,> 100,> 100,> 100,> 100,> 100,–,> 100,–,–,–,–,–
CCN(CC)c1ccc2c(c1)OC(=O)C(c1nnc(-c3ccc([N+](=O)[O-])cc3)o1)C2 (centres undefined),> 100,> 100,> 100,> 100,> 100,> 100,> 100,> 100,> 100,> 100,–,> 100,> 100,> 100,–,–,–,–,–

# Source: PubChem BioAssay (NCI)
